# Experimental data published in patent US20150072856A1, “ADJUVANTS BASED ON OPTIONALLY ALKOXYLATED REACTION PRODUCTS OF GLYCEROL CARBONATE AND ALKYLAMINES” (BASF SE, priority 2012, published 2015).
# Assays:
# Format in all cases: in vivo
# Conditions in all cases: 300 g/ha adjuvant, 375 l/ha tank mix, score vs untreated plants
# [1] = tested on: winter wheat (cultivar Cubus); test: Greenhouse herbicidal activity of glyphosate tank mix with adjuvant on wheat
# Description: (§1) An aqueous formulation (SL type) was prepared by dissolving 52.3 wt % potassium glyphosate in water. As adjuvant the ethoxylated (10 equivalents) carbamate from Example 1 was added and dissolved in the resulting SL formulation. This SL formulation was diluted with water to prepare a tank mix, which contained 0.8 g/l of the adjuvant, 0.75 g/l of the potassium glyphosate (or as alternative tank mix 0.37 g/l). This tankmix may be applied at 375 l/ha (corresponding to 300 g/ha adjuvant and 280 g/ha glyphosate (or 140 g/ha as alternative).
# (§2) For the greenhouse tests, various crops (winter wheat (cultivar Cubus), maize (cultivar Amadeo), soybean (cultivar Delta P.), rapeseed) was sown or potted in loamy sandy soil to a depth of 1-2 cm. When the plants had reached a growth height of 10 to 25 cm (i.e., around 10 to 21 days after sowing), the spray mixtures were applied to the plants in a spraying cabin.
# (§3) The tank mix prepared in Example 7 was applied at a application rate of 375 l/ha (140 or 280 g of glyphosate/ha and 300 g of adjuvant/ha). The temperatures in the experimental period, which lasted for 3 to 4 weeks, were between 18-35° C. […]
# (§4) The herbicidal activity was evaluated by awarding scores to the treated plants in comparison to the untreated control plants (Table 1 and 2). […]
# maize (cultivar Amadeo) = test: Greenhouse herbicidal activity of glyphosate tank mix with adjuvant on maize
# Description: as §1, §2, §3, §4
# [2] = tested on: soybean (cultivar Delta P.); test: Greenhouse herbicidal activity of glyphosate tank mix with adjuvant on soybean
# Description: as §1, §2, §3, §4
# rapeseed = test: Greenhouse herbicidal activity of glyphosate tank mix with adjuvant on rapeseed
# Description: as §1, §2, §3, §4
compound,measurement,setting,value
"O=C(O)CNCP(=O)([O-])O.[K+] [—, potassium glyphosate]","Activity [%] after 21 days DAT, Wheat",[1]; 140 g/ha glyphosate,8%
same,"Activity [%] after 21 days DAT, Wheat",[1]; 280 g/ha glyphosate,31%
same,"Activity [%] after 21 days DAT, Maize",maize (cultivar Amadeo); 140 g/ha glyphosate,13%
same,"Activity [%] after 21 days DAT, Maize",maize (cultivar Amadeo); 280 g/ha glyphosate,63%
same,"Activity [%] after 21 days DAT, Soybean",[2]; 140 g/ha glyphosate,0%
same,"Activity [%] after 21 days DAT, Soybean",[2]; 280 g/ha glyphosate,0%
same,"Activity [%] after 21 days DAT, Rapeseed",rapeseed; 140 g/ha glyphosate,0%
same,"Activity [%] after 21 days DAT, Rapeseed",rapeseed; 280 g/ha glyphosate,0%
